Laboratory results: US12692238B2, “Substituted pyridazinone herbicides” (FMC CORPORATION, priority 2020, dated 2026)

Columns and labels:
Assay type in all cases: in vivo
[1] = system: wheat (Triticum aestivum); test: Test A postemergence, wheat; settings: 10 days
Summary of the method: (§1)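 Scores reflect visual injury versus untreated controls after 10 days in a greenhouse, on a scale from 0 (none) to 100 (complete control); pre- and postemergence sprays used loam/sand pots, postemergence at the one- to two-leaf stage.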

[2] = system: goosegrass (Eleusine indica); test: Test A postemergence, goosegrass; settings: 10 days
Excerpt: (§2) Seeds of plant species selected from barnyardgrass (Echinochloa crus-galli), blackgrass (Alopecurus myosuroides), corn (Zea mays), foxtail, giant (giant foxtail, Setaria faberi), foxtail, green (green foxtail, Setaria viridis), goosegrass (Eleusine indica), kochia (Bassia scoparia), oat, wild (wild oat, Avena fatua), palmer amaranth (pigweed, palmer, Amaranthus palmeri), redroot pigweed (Amaranthus retroflexus), ragweed (common ragweed, Ambrosia artemisiifolia), ryegrass, Italian (Italian ryegrass, Lolium multiflorum), and soybean (Glycine max) were planted into a blend of loam soil and sand and treated preemergence with a directed soil spray using test chemicals formulated in a non-phytotoxic solvent mixture which included a surfactant.
(§3) At the same time, plants selected from these crop and weed species and also wheat (Triticum aestivum), galium (catchweed bedstraw, Galium aparine) and horseweed (Erigeron canadensis) were planted in pots containing the same blend of loam soil and sand and treated with postemergence applications of test chemicals formulated in the same manner. Plants ranged in height from 2 to 10 cm and were in the one- to two-leaf stage for the postemergence treatment. Treated plants and untreated controls were maintained in a greenhouse for 10 days, after which time all treated plants were compared to untreated controls and visually evaluated for injury. Plant response ratings, summarized in Table A, are based on a 0 to 100 scale where 0 is no effect and 100 is complete control. A dash (-) response means no test result.

[3] = system: corn (Zea mays); test: Test A postemergence, corn; settings: 10 days
Summary of the method: as §1

[4] = system: palmer amaranth (pigweed, palmer, Amaranthus palmeri); test: Test A preemergence, palmer amaranth; settings: 0 to 100 scale, 10 days
Excerpt: as §2, §3

[5] = system: ducksalad (Heteranthera limosa); test: Test B flooded paddy test, ducksalad; settings: 250 g ai/ha, Flood; visually evaluated after 10 to 14 days
Summary of the method: (§4)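 Greenhouse paddy assay in which test compounds were dosed into floodwater standing 3 cm above the soil. Plants were at the 2-leaf stage, the water level was kept constant, and effects were rated visually 10–14 days later on a 0–100 scale relative to controls.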

[6] = system: blackgrass (Alopecurus myosuroides); test: Test A preemergence, blackgrass; settings: 0 to 100 scale, 10 days
Excerpt: as §2, §3

[7] = system: oat, wild (wild oat, Avena fatua); test: Test A preemergence, oat, wild; settings: 0 to 100 scale, 10 days
Excerpt: as §2, §3

[8] = system: galium (catchweed bedstraw, Galium aparine); test: Test A postemergence, galium; settings: 10 days
Summary of the method: as §1

[9] = system: soybean (Glycine max); test: Test A preemergence, soybean; settings: 0 to 100 scale, 10 days
Excerpt: as §2, §3

[10] = system: foxtail, giant (giant foxtail, Setaria faberi); test: Test A preemergence, foxtail, giant; settings: 0 to 100 scale, 10 days
Summary of the method: as §1

[11] = system: soybean (Glycine max); test: Test A postemergence, soybean; settings: 10 days
Excerpt: as §2, §3

[12] = system: horseweed (Erigeron canadensis); test: Test A postemergence, horseweed; settings: 10 days
Excerpt: as §2, §3

[13] = system: ryegrass, Italian (Italian ryegrass, Lolium multiflorum); test: Test A postemergence, ryegrass, Italian; settings: 10 days
Summary of the method: as §1

[14] = system: goosegrass (Eleusine indica); test: Test A preemergence, goosegrass; settings: 0 to 100 scale, 10 days
Excerpt: as §2, §3

[15] = system: kochia (Bassia scoparia); test: Test A postemergence, kochia; settings: 10 days
Summary of the method: as §1

[16] = system: sedge, umbrella (small-flower umbrella sedge, Cyperus difformis); test: Test B flooded paddy test, sedge, umbrella; settings: 250 g ai/ha, Flood; visually evaluated after 10 to 14 days
Summary of the method: as §4

[17] = system: ryegrass, Italian (Italian ryegrass, Lolium multiflorum); test: Test A preemergence, ryegrass, Italian; settings: 0 to 100 scale, 10 days
Summary of the method: as §1

[18] = system: foxtail, giant (giant foxtail, Setaria faberi); test: Test A postemergence, foxtail, giant; settings: 10 days
Summary of the method: as §1

[19] = system: wheat (Triticum aestivum); test: Test A preemergence, wheat; settings: 125 g ai/ha, 0 to 100 scale, 10 days
[20] = system: rice (Oryza sativa); test: Test B flooded paddy test, rice; settings: 250 g ai/ha, Flood; visually evaluated after 10 to 14 days
Summary of the method: as §4

[21] = system: corn (Zea mays); test: Test A preemergence, corn; settings: 0 to 100 scale, 10 days
Excerpt: as §2, §3

[22] = system: ragweed (common ragweed, Ambrosia artemisiifolia); test: Test A postemergence, ragweed; settings: 10 days
Summary of the method: as §1

[23] = system: palmer amaranth (pigweed, palmer, Amaranthus palmeri); test: Test A postemergence, palmer amaranth; settings: 10 days
Excerpt: as §2, §3

[24] = system: ragweed (common ragweed, Ambrosia artemisiifolia); test: Test A preemergence, ragweed; settings: 0 to 100 scale, 10 days
Summary of the method: as §1

[25] = system: oat, wild (wild oat, Avena fatua); test: Test A postemergence, oat, wild; settings: 10 days
Excerpt: as §2, §3

[26] = system: kochia (Bassia scoparia); test: Test A preemergence, kochia; settings: 0 to 100 scale, 10 days
Summary of the method: as §1

[27] = system: blackgrass (Alopecurus myosuroides); test: Test A postemergence, blackgrass; settings: 10 days
Summary of the method: as §1

[28] = system: barnyardgrass (Echinochloa crus-galli); test: Test B flooded paddy test, barnyardgrass; settings: 250 g ai/ha, Flood; visually evaluated after 10 to 14 days
Summary of the method: as §4

[29] = 31 g ai/ha, postemergence, 0 to 100 scale (0 no effect, 100 complete control)
[30] = Postemergence, 125 g ai/ha, 0 to 100 scale

Structure (SMILES): Cc1ccc2cc3ccc(F)cc3c(-c3c(OCOC(=O)N(C)C)c(C)nn(C)c3=O)c2c1 [Compound 16]
- Plant response rating, Wheat [1, 29]: 0
- Plant response rating, Wheat [1, 30]: 0
- Plant response rating, Goosegrass [2, 29]: 0
- Plant response rating, Goosegrass [2, 30]: 0
- Plant response rating, Corn [3, 29]: 0
- Plant response rating, Corn [3, 30]: 0
- Plant response rating, Pigweed, Palmer ([4]; 31 g ai/ha): 10
- Plant response rating, Pigweed, Palmer ([4]; 125 g ai/ha): 0
- Plant response rating, Ducksalad (0 to 100 scale where 0 is no effect and 100 is complete control) [5]: 0
- Plant response rating, Blackgrass ([6]; 31 g ai/ha): 0
- Plant response rating, Blackgrass ([6]; 125 g ai/ha): 0
- Plant response rating, Oat, Wild ([7]; 31 g ai/ha): 0
- Plant response rating, Oat, Wild ([7]; 125 g ai/ha): 0
- Plant response rating, Galium [8, 29]: 0
- Plant response rating, Galium [8, 30]: 50
- Plant response rating, Soybean ([9]; 31 g ai/ha): 0
- Plant response rating, Soybean ([9]; 125 g ai/ha): 0
- Plant response rating, Foxtail, Giant ([10]; 31 g ai/ha): 0
- Plant response rating, Foxtail, Giant ([10]; 125 g ai/ha): 0
- Plant response rating, Soybean [11, 29]: 10
- Plant response rating, Soybean [11, 30]: 30
- Plant response rating, Horseweed [12, 29]: 10
- Plant response rating, Horseweed [12, 30]: 10
- Plant response rating, Ryegrass, Italian [13, 29]: 0
- Plant response rating, Ryegrass, Italian [13, 30]: 0
- Plant response rating, Goosegrass ([14]; 31 g ai/ha): 0
- Plant response rating, Goosegrass ([14]; 125 g ai/ha): 0
- Plant response rating, Kochia [15, 29]: 60
- Plant response rating, Kochia [15, 30]: 80
- Plant response rating, Sedge, Umbrella (0 to 100 scale where 0 is no effect and 100 is complete control) [16]: 0
- Plant response rating, Ryegrass, Italian ([17]; 31 g ai/ha): 0
- Plant response rating, Ryegrass, Italian ([17]; 125 g ai/ha): 0
- Plant response rating, Foxtail, Giant [18, 29]: 0
- Plant response rating, Foxtail, Giant [18, 30]: 20
- Plant response rating, Wheat [19]: 0
- Plant response rating, Rice (0 to 100 scale where 0 is no effect and 100 is complete control) [20]: 0
- Plant response rating, Corn ([21]; 31 g ai/ha): 0
- Plant response rating, Corn ([21]; 125 g ai/ha): 0
- Plant response rating, Ragweed [22, 29]: 10
- Plant response rating, Ragweed [22, 30]: 30
- Plant response rating, Pigweed, Palmer [23, 29]: 100
- Plant response rating, Pigweed, Palmer [23, 30]: 60
- Plant response rating, Ragweed ([24]; 31 g ai/ha): 0
- Plant response rating, Ragweed ([24]; 125 g ai/ha): 0
- Plant response rating, Oat, Wild [25, 29]: 0
- Plant response rating, Oat, Wild [25, 30]: 0
- Plant response rating, Kochia ([26]; 31 g ai/ha): 0
- Plant response rating, Kochia ([26]; 125 g ai/ha): 0
- Plant response rating, Blackgrass [27, 29]: 0
- Plant response rating, Blackgrass [27, 30]: 0
- Plant response rating, Barnyardgrass (0 to 100 scale where 0 is no effect and 100 is complete control) [28]: 0
